# Experimental data: article PMC7864192 (Cancers, 2021)
# Like-named read-outs stand apart in the source and are kept apart here.
# Key:
# AGCT cell lines = test: Cell viability drug screen (72 h), summary over AGCT cell lines (12 patient-derived, with or without KGN); format: cell-based, human; conditions: median over AGCT cell lines; read-out: median IC50 in monotherapy
# Method: Cell lines were seeded at a density of 500 cells/well in 40 uL in 384-well plates (Corning, NY, USA) with the Multidrop™ cell dispenser (Thermo Fischer Scientific, Waltham, MA, USA) and sealed with Breathe-Easy® membrane (Sigma-Aldrich, St. Louis, MO, USA) to prevent evaporation. The SVOG-3e line was seeded at 1000 cells/well due to contact-dependent growth requirements. For each cell line, three biological repeats and two technical repeats each were performed in order to ensure the validity of the drug screens. […] Subsequently, 11 drugs and 12 drug combinations were dispensed and all wells (excluding blanks and non-DMSO control wells) were normalized to 1% DMSO using the HP Tecan D300e Digital Dispenser (Hewlett-Packard, Palo Alto, CA, USA). All drugs were applied in linear concentration ranges (Table 2), including 16 data points to enable combination drug testing at constant ratios (Table 3). Next, the plates were covered with the Breathe-Easy membrane and incubated. After 72 h, the Multidrop dispensed 15 uL per well of Cell Titer Glo 2.0 (Thermo Fischer Scientific, Waltham, MA, USA) and plates were incubated in the dark for 10 min. After incubation, luminescence excitation was assessed in the Spectramax reader (Molecular Devices, San Jose, CA, USA) (top read, luminescence excitation at 500 nm) and raw data were processed in Microsoft Excel to subtract background luminescence. The Z-factor, a mathematical method used to quantify the quality of a drug screen based on the calculation of the separation band between the values of the positive and negative controls, was utilized to assess the quality of drug screens [54]. Screens with a Z-factor value of >0.5 were used for further analysis.
# (§1) Overall cell survival (in %) was plotted against the drug concentration range of each drug (in log10[μM]) using GraphPad Prism 8.3.1. Values that exceeded 100% survival (within +20% biological deviation) were normalized to 100% survival. Similarly, values below 0% cell survival (within −20% biological deviation) were normalized to 0% survival. Values exceeding this deviation were excluded. Dose–response curves were obtained using the model “log(inhibitor) vs. variable slope (normalized response)” to fit the dose–response curves and R^2 values were used to indicate how well the model fit the data (Supplementary Materials Figures S4 and S5). […] The maximum plasma concentration (Cmax) and the plasma concentration at steady state (Css) were used as toxicity thresholds. The Cmax was utilized for drugs in which short, high-dosage time courses are required, while the Css was used for maintenance therapy regimes such as anti-hormonal treatment. […] The IC50 values were calculated based on the Chou–Talalay method using Compusyn software [55]. For anti-hormonal treatment, mostly provided as maintenance therapy, we used IC10 values in addition to the IC50.
# (§2) In addition to the 11 monotherapies, 12 drug combinations were tested (Table 3) simultaneously with the individual drug treatments in the same 384-well plate. […] Synergy was evaluated using the mass action law, a systematic analysis assessing dose–response dynamics in a cost-effective manner [56, 57]. The combination index (CI) was used to indicate antagonistic (CI > 1) additive (CI = 1) and synergistic (CI < 1) effects [55].
# [1] = cited from earlier work
# [2] = tested on: KGN cells (AGCT cell line); test: Cell viability drug screen (Cell Titer Glo 2.0, 72 h), mono- and combination therapy, KGN
# Method: KGN was cultured in conditions identical to AGCT-patient-derived cell lines.
# (§3) Cell lines were seeded at a density of 500 cells/well in 40 uL in 384-well plates (Corning, NY, USA) with the Multidrop™ cell dispenser (Thermo Fischer Scientific, Waltham, MA, USA) and sealed with Breathe-Easy® membrane (Sigma-Aldrich, St. Louis, MO, USA) to prevent evaporation. The SVOG-3e line was seeded at 1000 cells/well due to contact-dependent growth requirements. For each cell line, three biological repeats and two technical repeats each were performed in order to ensure the validity of the drug screens. […] Subsequently, 11 drugs and 12 drug combinations were dispensed and all wells (excluding blanks and non-DMSO control wells) were normalized to 1% DMSO using the HP Tecan D300e Digital Dispenser (Hewlett-Packard, Palo Alto, CA, USA). All drugs were applied in linear concentration ranges (Table 2), including 16 data points to enable combination drug testing at constant ratios (Table 3). Next, the plates were covered with the Breathe-Easy membrane and incubated. After 72 h, the Multidrop dispensed 15 uL per well of Cell Titer Glo 2.0 (Thermo Fischer Scientific, Waltham, MA, USA) and plates were incubated in the dark for 10 min. After incubation, luminescence excitation was assessed in the Spectramax reader (Molecular Devices, San Jose, CA, USA) (top read, luminescence excitation at 500 nm) and raw data were processed in Microsoft Excel to subtract background luminescence. […] Screens with a Z-factor value of >0.5 were used for further analysis.
# (§4) Overall cell survival (in %) was plotted against the drug concentration range of each drug (in log10[μM]) using GraphPad Prism 8.3.1. Values that exceeded 100% survival (within +20% biological deviation) were normalized to 100% survival. Similarly, values below 0% cell survival (within −20% biological deviation) were normalized to 0% survival. Values exceeding this deviation were excluded. Dose–response curves were obtained using the model “log(inhibitor) vs. variable slope (normalized response)” to fit the dose–response curves and R^2 values were used to indicate how well the model fit the data (Supplementary Materials Figures S4 and S5). […] The IC50 values were calculated based on the Chou–Talalay method using Compusyn software [55]. For anti-hormonal treatment, mostly provided as maintenance therapy, we used IC10 values in addition to the IC50.
# [3] = tested on: GCPA028 T1.II patient-derived AGCT cell line; test: Cell viability drug screen (Cell Titer Glo 2.0, 72 h), mono- and combination therapy, GCPA028
# Method: as §3, §1, §2
# [4] = tested on: GCPA007 T2.I patient-derived AGCT cell line; test: Cell viability drug screen (Cell Titer Glo 2.0, 72 h), mono- and combination therapy, GCPA007T2.I; conditions: GCPA007T2I
# Method: as §3, §1, §2
# [5] = tested on: GCPA096 T1.I patient-derived AGCT cell line; test: Cell viability drug screen (Cell Titer Glo 2.0, 72 h), mono- and combination therapy, GCPA096T1.I; conditions: GCPA096T1I
# Method: (§5) Cell lines were seeded at a density of 500 cells/well in 40 uL in 384-well plates (Corning, NY, USA) with the Multidrop™ cell dispenser (Thermo Fischer Scientific, Waltham, MA, USA) and sealed with Breathe-Easy® membrane (Sigma-Aldrich, St. Louis, MO, USA) to prevent evaporation. […] For each cell line, three biological repeats and two technical repeats each were performed in order to ensure the validity of the drug screens. […] Subsequently, 11 drugs and 12 drug combinations were dispensed and all wells (excluding blanks and non-DMSO control wells) were normalized to 1% DMSO using the HP Tecan D300e Digital Dispenser (Hewlett-Packard, Palo Alto, CA, USA). […] Next, the plates were covered with the Breathe-Easy membrane and incubated. After 72 h, the Multidrop dispensed 15 uL per well of Cell Titer Glo 2.0 (Thermo Fischer Scientific, Waltham, MA, USA) and plates were incubated in the dark for 10 min. After incubation, luminescence excitation was assessed in the Spectramax reader (Molecular Devices, San Jose, CA, USA) (top read, luminescence excitation at 500 nm) and raw data were processed in Microsoft Excel to subtract background luminescence. The Z-factor, a mathematical method used to quantify the quality of a drug screen based on the calculation of the separation band between the values of the positive and negative controls, was utilized to assess the quality of drug screens [54]. Screens with a Z-factor value of >0.5 were used for further analysis.
# as §4, §2
# [6] = tested on: GCPA096 T1.V patient-derived AGCT cell line; test: Cell viability drug screen (Cell Titer Glo 2.0, 72 h), mono- and combination therapy, GCPA096T1.V; conditions: GCPA096T1V
# [7] = tested on: GCPA113 T1.I patient-derived AGCT cell line; test: Cell viability drug screen (Cell Titer Glo 2.0, 72 h), mono- and combination therapy, GCPA113T1.I; conditions: GCPA113T1I
# Method: as §5, §4, §2
# [8] = tested on: GCPA007 T2.IV patient-derived AGCT cell line; test: Cell viability drug screen (Cell Titer Glo 2.0, 72 h), mono- and combination therapy, GCPA007T2.IV; conditions: GCPA007T2IV
# Method: as §5, §4, §2
# [9] = tested on: GCPA096 T1.II patient-derived AGCT cell line; test: Cell viability drug screen (Cell Titer Glo 2.0, 72 h), mono- and combination therapy, GCPA096T1.II; conditions: GCPA096T1II
# Method: as §3, §1, §2
# [10] = tested on: GCPA096 T1.XV patient-derived AGCT cell line; test: Cell viability drug screen (Cell Titer Glo 2.0, 72 h), mono- and combination therapy, GCPA096T1.XV; conditions: GCPA096T1XV
# [11] = tested on: GCPA108 T3.IV patient-derived AGCT cell line; test: Cell viability drug screen (Cell Titer Glo 2.0, 72 h), mono- and combination therapy, GCPA108T3.IV; conditions: GCPA108T3IV
# [12] = tested on: GCPA113 T1.II patient-derived AGCT cell line; test: Cell viability drug screen (Cell Titer Glo 2.0, 72 h), mono- and combination therapy, GCPA113T1.II; conditions: GCPA113T1II
# Method: as §5, §4, §2
# [13] = tested on: GCPA096 T1.XVI patient-derived AGCT cell line; test: Cell viability drug screen (Cell Titer Glo 2.0, 72 h), mono- and combination therapy, GCPA096T1.XVI; conditions: GCPA096T1XVI
# Method: as §3, §1, §2
# [14] = tested on: GCPA113 T1.III patient-derived AGCT cell line; test: Cell viability drug screen (Cell Titer Glo 2.0, 72 h), mono- and combination therapy, GCPA113T1.III; conditions: GCPA113T1III
# [15] = drug within Carbo+Pacli+6thio2dG
# [16] = drug within Carbo+Pacli+Alpelisib
# [17] = read-out: IC50 in monotherapy, monotherapy
# [18] = in combination Carbo+Pacli+6thio2dG
# [19] = in combination Carbo+Pacli+Alpelisib
# [20] = read-out: IC50 in monotherapy, single drug, 72 h, unit not given (compared with Cmax/Css in uM)
smiles,measurement,setting,value
N.N.O=C([O-])C1(C(=O)[O-])CCC1.[Pt+2] [Carboplatin],IC50,AGCT cell lines,343 µM
same,Cmax/Css plasma (Log 10),"[1]; human maximum or steady state plasma concentration, log10 of the uM value",2.13 Log 10
same,Cmax/Css plasma (Log 10),"[1]; human plasma Cmax/Css, log10 of uM value, from phase I/II clinical trials",2.13 Log 10
same,Cmax/Css plasma (Log 10),"[1]; human plasma maximum/steady state concentration, ref phase I/II clinical trials",2.13 Log 10
same,Cmax/Css plasma (Log 10),"[1]; human plasma, maximum or steady state concentration, log10 of uM value",2.13
same,Cmax/Css plasma (Log 10),"[1]; human plasma, log10 of uM, phase I/II trials",2.13
same,Cmax,"[1]; read-out: Cmax (maximum drug concentration achieved in plasma), human plasma, phase I/II studies",135 µM
same,Cmax,"[1]; read-out: Cmax/Css plasma, human maximum or steady state plasma concentration",135 µM
same,Cmax,"[1]; read-out: Cmax/Css plasma, human plasma Cmax/Css, from phase I/II clinical trials",135 µM
same,Cmax,"[1]; read-out: Cmax/Css plasma, human plasma maximum/steady state concentration, ref phase I/II clinical trials",135 µM
same,Cmax,"[1]; read-out: Cmax/Css plasma, human plasma, maximum or steady state concentration",135 µM
same,Cmax,"[1]; read-out: Cmax/Css plasma, human plasma, phase I/II trials",135 µM
same,"DRI (Fa=0,5)",[2]; drug within Carbo+Pacli,5.1507
same,"DRI (Fa=0,5)",[2]; [15],2.192
same,"DRI (Fa=0,5)",[2]; [16],26.6538
same,IC50,[2]; [17],297 µM
same,"DRI (Fa=0,5)","[3]; GCPA028, in combination Carbo+Pacli",0.51
same,"DRI (Fa=0,5)","[3]; GCPA028, in combination Carbo+Pacli+6thio2dG",0.29
same,"DRI (Fa=0,5)","[3]; GCPA028, in combination Carbo+Pacli+Alpelisib",41.26
same,IC50,"[3]; read-out: IC50 in monotherapy, GCPA028, monotherapy",> 500 µM
same,"DRI (Fa=0,5)",[4]; in Carbo+Pacli (10:1),4.425
same,"DRI (Fa=0,5)",[4]; in Carbo+Pacli+6thio2dG (10:1:1),2.54
same,"DRI (Fa=0,5)",[4]; in Carbo+Pacli+Alpelisib (10:1:2),230.67
same,IC50,"[4]; read-out: IC50 in monotherapy, cell viability 72 h after drug application",> 500 µM
same,"DRI (Fa=0,5)",[5]; in combination Carbo+Pacli,1.8
same,"DRI (Fa=0,5)",[5]; [18],2.92
same,"DRI (Fa=0,5)",[5]; [19],7.45
same,IC50,[5]; [17],257 µM
same,"DRI (Fa=0,5)",[6]; drug within Carbo+Pacli,1.19
same,"DRI (Fa=0,5)",[6]; [15],4.7
same,"DRI (Fa=0,5)",[6]; [16],17.09
same,IC50,[6]; [20],> 500 µM
same,"DRI (Fa=0,5)",[7]; in Carbo+Pacli,1.12
same,"DRI (Fa=0,5)",[7]; in Carbo+Pacli+6thio2dG,2.55
same,"DRI (Fa=0,5)",[7]; in Carbo+Pacli+Alpelisib,32.56
same,IC50,[7]; [17],> 500 µM
same,"DRI (Fa=0,5)",[8]; in combination Carbo+Pacli,2.73
same,"DRI (Fa=0,5)",[8]; [18],1.36
same,"DRI (Fa=0,5)",[8]; [19],37.92
same,IC50,[8]; [17],> 500 µM
same,"DRI (Fa=0,5)",[9]; drug within Carbo+Pacli,1.11
same,"DRI (Fa=0,5)",[9]; [15],2.3
same,"DRI (Fa=0,5)",[9]; [16],5.75
same,IC50,[9]; [20],168 µM
same,"DRI (Fa=0,5)",[10]; drug within Carbo+Pacli,0.85
same,"DRI (Fa=0,5)",[10]; [15],2.35
same,"DRI (Fa=0,5)",[10]; [16],7.71
same,IC50,[10]; [20],265 µM
same,"DRI (Fa=0,5)",[11]; in Carbo+Pacli,1
same,"DRI (Fa=0,5)",[11]; in Carbo+Pacli+6thio2dG,0.7515
same,"DRI (Fa=0,5)",[11]; in Carbo+Pacli+Alpelisib,9.921
same,"DRI (Fa=0,5)",[12]; drug within Carbo+Pacli,1.06
same,"DRI (Fa=0,5)",[12]; [15],1.33
same,"DRI (Fa=0,5)",[12]; [16],4.67
same,IC50,[12]; [17],276 µM
same,"DRI (Fa=0,5)",[13]; in Carbo+Pacli,0.64
same,"DRI (Fa=0,5)",[13]; in Carbo+Pacli+6thio2dG,0.59
same,"DRI (Fa=0,5)",[13]; in Carbo+Pacli+Alpelisib,2.39
same,IC50,[13]; [17],144 µM
same,"DRI (Fa=0,5)",[14]; drug within Carbo+Pacli,1.76
same,"DRI (Fa=0,5)",[14]; [15],1.97
same,"DRI (Fa=0,5)",[14]; [16],35.75
same,IC50,[14]; [17],358 µM
